Earlier results as cited in US20110053874A1, “USE OF FLAVONOIDE COMPOUNDS FOR THE PROPHYLAXIS AND THERAPY OF ISCHAEMIC OR INFLAMMATORY HEART AND CARDIOVASCULAR DISEASES” (BOEHRINGER INGELHEIM INTERNATIONAL GMBH, priority 2008, published 2011).

Assays:
[1] = in vivo
[2] = human, oral

absorption [1]	Compound	form present in the plasma after being taken orally and absorbed through the intestine [2]
only absorbed to a small extent	O=c1c(O)c(-c2ccc(O)c(O)c2)oc2cc(O)cc(O)c12 [Quercetin]	–
–	O=c1c(O[C@@H]2O[C@H](CO)[C@@H](O)[C@H](O)[C@H]2O)c(-c2ccc(O)cc2)oc2cc(O)cc(O)c12 [kaempferol glucoside, kaempferol-3-O-β-D-glucoside]	almost completely in the form of their respective glucuronides
–	O=c1c(O[C@@H]2O[C@H](CO)[C@@H](O)[C@H](O)[C@H]2O)c(-c2ccc(O)c(O)c2)oc2cc(O)cc(O)c12 [quercetin glucoside, quercetin-3-O-β-D-glucoside]	almost completely in the form of their respective glucuronides
